Laboratory results taken from ChEMBL document CHEMBL1123147, “The intercalation of 6-chloro-substituted-9-[[3-(dimethylamino)propyl]amino]acridines with DNA” (J Med Chem, 1985).

Each molecule was assayed on Nucleic Acid (assay: Binding constant were determined from viscometric titrations with closed circular superhelical DNA).
In the case of `Cc1ccc2nc3cc(Cl)ccc3c(NCCCN(C)C)c2c1`, the K app is reported as 290000. For `CN(C)CCCNc1c2ccccc2nc2cc(Cl)ccc12`, the K app was 130000. `COc1ccc2nc3cc(Cl)ccc3c(NCCCN(C)C)c2c1` gave a K app of 210000. With `CN(C)CCCNc1c2ccc(Cl)cc2nc2ccc(Cl)cc12` the K app was 160000. With `CSc1ccc2nc3cc(Cl)ccc3c(NCCCN(C)C)c2c1` the K app was 200000. `CN(C)CCCNc1c2ccc(Cl)cc2nc2ccc(F)cc12` gave a K app of 160000.
